From patent US11634396B2 (priority 2021, dated 2023)

target: human mOR (Homo sapiens (Human), UniProt P35372); assay: cell-based; conditions: not given
Experimental: CHO Tag-lite human mOR stable cell line from Cisbio (NCBI accession number: NM_000914.3, Bedford, Mass.) were seeded and grown to approximately 80% confluence in Ham F-12 with 10% FBS, 50 U/ml penicillin, 50 μg/ml streptomycin, 2 mM Hepes, and 1 mg/ml geneticin (Invitrogen, Carlsbad, Calif.). Cells were then harvested using accutase (Corning. Coming, N.Y.), centrifuged at 1300 RPM for 5 min, and plated at 5000 cells per 5 μL per well in a 5× dilution of stimulation buffer consisting of the HTRF cAMP Gi kit, water and IBMX at 0.5 mM (Cisbio, Bedford, Mass.) in white HTRF low volume 384 well plates (Cisbio, Bedford, Mass.). Plates were then incubated at 37° C. in 5% CO2 for 10 minutes. For the agonist assay, forskolin was added to a final concentration of 4 μM. […] Test compounds were dissolved in DMSO and water, and then serially diluted to working concentrations such that the concentration of DMSO was less than 0.1%. Diluted test compounds were added at 2.5 μL per well, and plates were incubated at 37° C., and 5% CO2 for 15 minutes, and then at room temperature for 15 minutes. Next 5 μl/well of cAMP Eu-cryptate and 5 μl/well of anti-cAMP-d2 (both diluted 1:20 in lysis buffer) were added, and plates were incubated at room temperature for 1 hour. Following incubation, plates were read in a Synergy Neo2 multi-mode reader (Biotek, Winooski, Vt.). […] For the agonist assay, data was normalized using the maximal DAMGO response. Measurements were performed in triplicate and the dose response was fit using nonlinear regression.

human mOR, sequence (P35372 whole entry): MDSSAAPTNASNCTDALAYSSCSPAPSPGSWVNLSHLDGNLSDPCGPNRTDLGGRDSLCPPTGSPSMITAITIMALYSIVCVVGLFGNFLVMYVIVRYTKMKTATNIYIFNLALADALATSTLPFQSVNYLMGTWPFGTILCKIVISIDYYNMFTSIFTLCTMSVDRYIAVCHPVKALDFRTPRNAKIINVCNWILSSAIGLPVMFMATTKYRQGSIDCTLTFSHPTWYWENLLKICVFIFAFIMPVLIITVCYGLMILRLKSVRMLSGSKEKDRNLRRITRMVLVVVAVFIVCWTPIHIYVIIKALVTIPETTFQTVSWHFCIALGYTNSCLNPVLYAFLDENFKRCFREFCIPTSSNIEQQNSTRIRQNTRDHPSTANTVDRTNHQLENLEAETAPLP

Cc1cc(O)cc(C)c1C[C@@H](CNC(=O)CC(c1cncc(F)c1)C1(C(F)(F)F)CC1)N(C)C (stereo partly drawn) [Compound 247, N-((S)-2-(dimethylamino)-3-(4-hydroxy-2,6-dimethylphenyl)propyl)-3-(5-fluoropyridin-3-yl)-3-(1-(trifluoromethyl)cyclopropyl)propanamide] and CNC(=O)c1ccc(C[C@@H](CNC(=O)CC(c2cncc(F)c2)C2(C(F)(F)F)CC2)N(C)C)c(Cl)c1 (stereo partly drawn) [Compound 116] cannot be ordered by IC50: < 300 nM for the first, < 300 nM for the second.

Cc1ccc([C@@H](CC(=O)NC[C@H](Cc2ccc(O)cc2)N(C)C)C2(C(F)(F)F)CC2)cn1 [Compound 302, (R)-N-((S)-2-(dimethylamino)-3-(4-hydroxyphenyl)propyl)-3-(6-methylpyridin-3-yl)-3-(1-(trifluoromethyl)cyclopropyl) propanamide] and Cc1ccc([C@@H](CC(=O)NC[C@H](Cc2ccc(O)cc2)N(C)C)C2(C(F)(F)F)CC2)s1 [Compound 293, (S)-N-((S)-2-(dimethylamino)-3-(4-hydroxyphenyl)propyl)-3-(5-methylthiophen-2-yl)-3-(1-(trifluoromethyl)cyclopropyl)propanamide] cannot be ordered by IC50: < 300 nM for the first, < 300 nM for the second.

CN(C)[C@H](CNC(=O)C[C@H](CC1CC1)c1ccncc1)Cc1ccc(O)cc1 [Compound 298, (S)-4-cyclopropyl-N-((S)-2-(dimethylamino)-3-(4-hydroxyphenyl)propyl)-3-(pyridin-4-yl)butanamide] and CN(C)[C@H](CNC(=O)C[C@H](c1cccnc1)C1(C)CC1)Cc1ccc(O)cc1 [Compound 303, (S)-N-((S)-2-(dimethylamino)-3-(4-hydroxyphenyl)propyl)-3-(1-methylcyclopropyl)-3-(pyridin-3-yl)propanamide] cannot be ordered by IC50: < 300 nM for the first, < 300 nM for the second.

First: Cc1c(C[C@@H](CNC(=O)C[C@@H](c2cncc(F)c2)C(C)(C)C)N(C)C)ccc(C(N)=O)c1F [Compound 45, 4-((S)-2-(dimethylamino)-3-((R)-3-(5-fluoropyridin-3-yl)-4,4-dimethylpentanamido)propyl)-2-fluoro-3-methylbenzamide]
Second: CC(C)[C@H](CC(=O)NC[C@H](Cc1ccc(C(N)=O)c(F)c1)N(C)C)c1cccnc1 [Compound 78, 4-[(2S)-2-(dimethylamino)-3-[(3S)-4-methyl-3-(pyridin-3-yl)pentanamido]propyl]-2-fluorobenzamide]
The IC50 of the first is lower: < 300 nM for the first, > 3000 nM for the second.

Cc1cc(O)ccc1C[C@@H](CNC(=O)C[C@H](c1cncs1)C1(C(F)(F)F)CC1)N(C)C [Compound 268, (S)-N-((S)-2-(dimethylamino)-3-(4-hydroxy-2-methylphenyl)propyl)-3-(thiazol-5-yl)-3-(1-(trifluoromethyl)cyclopropyl)propanamide] and CNC(=O)c1ccc(C[C@@H](CNC(=O)CC(c2ccncc2)C2(C(F)(F)F)CC2)N(C)C)c(C)c1 (stereo partly drawn) [Compound 134, 4-((2S)-2-(dimethylamino)-3-(3-(pyridin-4-yl)-3-(1-(trifluoromethyl)cyclopropyl)propanamido)propyl)-N,3-dimethylbenzamide] cannot be ordered by IC50: < 300 nM for the first, < 300 nM for the second.

First: CNC(=O)c1ccc(C[C@@H](CNC(=O)C[C@H](c2cnc(C)nc2)C2(C(F)(F)F)CC2)N(C)C)cc1F [Compound 152, 4-((S)-2-(dimethylamino)-3-((R)-3-(2-methylpyrimidin-5-yl)-3-(1-(trifluoromethyl)cyclopropyl)propanamido)propyl)-2-fluoro-N-methylbenzamide]
Second: Cc1ncc([C@@H](CC(=O)NC[C@H](Cc2ccc(C(N)=O)c(F)c2)N(C)C)C2(C(F)(F)F)CC2)s1 [Compound 59, 4-((S)-2-(dimethylamino)-3-((S)-3-(2-methylthiazol-5-yl)-3-(1-(trifluoromethyl)cyclopropyl)propanamido)propyl)-2-fluorobenzamide]
The IC50 of the first is higher: > 3000 nM for the first, < 300 nM for the second. The second is the more potent here.

CNC(=O)c1ccc(C[C@@H](CNC(=O)CC(c2cccnc2)C2(C(F)(F)F)CC2)N(C)C)c(Cl)c1 (stereo partly drawn) [Compound 119, 3-chloro-4-((2S)-2-(dimethylamino)-3-(3-(pyridin-3-yl)-3-(1-(trifluoromethyl)cyclopropyl)propanamido)propyl)-N-methylbenzamide] and CNC(=O)c1ccc(C[C@@H](CNC(=O)CC(c2cccnc2)C2(C(F)(F)F)CC2)N(C)C)c(Cl)c1F (stereo in doubt) [Compound 109, 3-chloro-4-((S)-2-(dimethylamino)-3-((S)-3-(pyridin-3-yl)-3-(1-(trifluoromethyl)cyclopropyl)propanamido)propyl)-2-fluoro-N-methylbenzamide] cannot be ordered by IC50: < 300 nM for the first, < 300 nM for the second.

First: CNC(=O)c1ccc(C[C@@H](CNC(=O)CC(c2ncc(Cl)cn2)C2(C(F)(F)F)CC2)N(C)C)c(Cl)c1F (stereo partly drawn) [Compound 112, 3-chloro-4-((2S)-3-(3-(5-chloropyrimidin-2-yl)-3-(1-(trifluoromethyl)cyclopropyl)propanamido)-2-(dimethylamino)propyl)-2-fluoro-N-methylbenzamide]
Second: CN(C)[C@H](CNC(=O)C[C@@H](c1ncc(Cl)cn1)C1(C(F)(F)F)CC1)Cc1cc(F)c(C(N)=O)cc1F [Compound 5, 4-[(2S)-3-[(3R)-3-(5-chloropyrimidin-2-yl)-3-[1-(trifluoromethyl)cyclopropyl]propanamido]-2-(dimethylamino)propyl]-2,5-difluorobenzamide]
The IC50 of the first is higher: > 3000 nM for the first, 300 to 3000 nM for the second.

CN(C)[C@H](CNC(=O)CC(c1ncccn1)C1(C(F)(F)F)CC1)Cc1ccc(O)cc1 (stereo partly drawn) [Compound 313, N-((S)-2-(dimethylamino)-3-(4-hydroxyphenyl)propyl)-3-(pyrimidin-2-yl)-3-(1-(trifluoromethyl)cyclopropyl)propanamide] and CN(C)[C@H](CNC(=O)CC(c1ccncc1)C1(C(F)(F)F)CC1)Cc1ccc(C(N)=O)cc1Cl (stereo partly drawn) [Compound 26, 3-chloro-4-[(2S)-2-(dimethylamino)-3-[3-(pyridin-4-yl)-3-[1-(trifluoromethyl)cyclopropyl]propanamido]propyl]benzamide] cannot be ordered by IC50: < 300 nM for the first, < 300 nM for the second.

Going from CNC(=O)c1ccc(C[C@@H](CNC(=O)C[C@@H](CC(C)C)c2cccnc2)N(C)C)c(C)c1 [Compound 126, 4-((S)-2-(dimethylamino)-3-((R)-5-methyl-3-(pyridin-3-yl)hexanamido)propyl)-N,3-dimethylbenzamide] to CNC(=O)c1ccc(C[C@@H](CNC(=O)CC(c2ncccc2F)C2(C(F)(F)F)CC2)N(C)C)c(Cl)c1 (stereo partly drawn) [Compound 120, 3-chloro-4-((2S)-2-(dimethylamino)-3-(3-(3-fluoropyridin-2-yl)-3-(1-(trifluoromethyl)cyclopropyl)propanamido)propyl)-N-methylbenzamide], the IC50 falls from > 3000 nM to < 300 nM.

same assay, conditions: CHO Tag-lite human mOR stable cell line; forskolin 4 μM and DAMGO at EC90; read-out: mOR cAMP Antagonist Assay IC50

Cc1ncc([C@@H](CC(=O)NC[C@H](Cc2cc3cn[nH]c3cc2Cl)N(C)C)C2(C(F)(F)F)CC2)cn1 [Compound 233, (R)-N-((S)-3-(6-chloro-H-indazol-5-yl)-2-(dimethylamino)propyl)-3-(2-methylpyrimidin-5-yl)-3-(1-(trifluoromethyl)cyclopropyl) propanamide] and CN(C)[C@H](CNC(=O)C[C@@H](c1cccnc1)C1(C(F)(F)F)CC1)Cc1ccc2[nH]ncc2c1 [Compound 237, (S)-N-((S)-2-(dimethylamino)-3-(1H-indazol-5-yl)propyl)-3-(pyridin-3-yl)-3-(1-(trifluoromethyl)cyclopropyl)propanamide] cannot be ordered by IC50: < 300 nM for the first, < 300 nM for the second.

CN[C@H](CNC(=O)C[C@H](c1cccnc1)C1(C(F)(F)F)CC1)Cc1ccc2[nH]ncc2c1 [Compound 200, (R)-N-((S)-3-(1H-indazol-5-yl)-2-(methylamino)propyl)-3-(pyridin-3-yl)-3-(1-(trifluoromethyl)cyclopropyl)propanamide] and CC(C)[C@H](CC(=O)NC[C@H](Cc1ccc2[nH]ncc2c1)N(C)C)c1cccnc1 [Compound 206, (S)-N-((S)-2-(dimethylamino)-3-(1H-indazol-5-yl)propyl)-4-methyl-3-(pyridin-3-yl)pentanamide] fall in the same range of IC50: 300 to 3000 nM for the first, 300 to 3000 nM for the second.

Going from CN(C)[C@H](CNC(=O)C[C@H](c1ccncc1)C1(C(F)(F)F)CC1)Cc1ccc2[nH]ncc2c1Cl [Compound 191, (R)-N-((S)-3-(4-chloro-1H-indazol-5-yl)-2-(dimethylamino)propyl)-3-(pyridin-4-yl)-3-(1-(trifluoromethyl)cyclopropyl)propanamide] to CNC(=O)c1ccc(C[C@@H](CNC(=O)C[C@@H](c2ccncc2)C2(C(F)(F)F)CC2)N(C)C)c(Cl)c1F [Compound 110, 3-chloro-4-((S)-2-(dimethylamino)-3-((S)-3-(pyridin-4-yl)-3-(1-(trifluoromethyl)cyclopropyl)propanamido)propyl)-2-fluoro-N-methylbenzamide], the IC50 rises from < 300 nM to > 3000 nM. The first is the more potent here.

same assay, conditions: read-out: mOR cAMP Antagonist Assay IC50

For CNC(=O)c1ccc(C[C@@H](CNC(=O)CC(c2ccc(OC)nc2)C2(C(F)(F)F)CC2)N(C)C)c(Cl)c1 (stereo partly drawn) [Compound 115, 3-chloro-4-((2S)-2-(dimethylamino)-3-(3-(6-methoxypyridin-3-yl)-3-(1-(trifluoromethyl)cyclopropyl)propanamido)propyl)-N-methylbenzamide], the IC50 was 300 to 3000 nM.
